Test results from patent US20190125753A1, “COMPOUNDS AND METHODS FOR INCREASING HEMATOPOIESIS” (University of Southern California, priority 2016, published 2019).

Key:
[1] = system: bone marrow stem/progenitor cells; assay: HSPC proliferation in 5-FU treated animals; type: in vivo, mouse; conditions: 5-FU 150 mg/kg, YH250 2 mg/kg 24 hours later, analysed one day later
Method: p300/-catenin antagonists, such as YH250, were also tested for the ability to stimulate bone marrow stem/progenitor cell proliferation in chemotherapeutic drug-treated (e.g., 5-FU) animals. As depicted in FIG. 24A, animals were given PBS or 5-FU (150 mg/kg). 24 hours later, either DMSO or YH250 (2 mg/kg) were administrated to animals. Then, bone marrow cells were isolated one day later for FACS analysis.

bone marrow cells = assay: Radiation induced apoptosis, cleaved PARP FACS; type: in vivo; conditions: administered 18 hours before 5Gy radiation; 6 hours after radiation
Method: Since p300/-catenin antagonists such as YH250 up-regulate survivin gene expression, YH250 was tested for the ability to attenuate radiation induced cell apoptosis by detecting cleaved PARP (Poly ADP ribose polymerase-1) using anti-PARP antibody and FACS analysis (BD Bioscience, Cat#562253, anti-PARP clone F21-852). DMSO or YH250 were administrated 18 hours before 5Gy radiation. 6 hours after radiation, bone marrow cells were isolated and stained for cell surface markers (lineage markers, Sca-1, c-kit) and anti-PARP (FIG. 23A).

[2] = target: T1, CBP/γ-catenin interaction (Mus musculus, UniProt P45481); assay: Co-IP of bone marrow Sca-1posit cells from treated mice (anti-CBP); type: in vivo; conditions: YH250 2 mg/kg subcutaneously, 24 hrs
T1 construct: bone marrow Sca-1posit cells were isolated with Anti-Sca-1 microbeads; from tissue; host or cells: bone marrow Sca-1 positive cells of female C57/Black mice dosed in vivo
Method: YH250 was used in this study. Female C57/Black mice were administrated with either DMSO (solvent control) or YH250 (2 mg/kg) subcutaneously. 24 hrs later, bone marrow Sca-1posit cells were isolated with Anti-Sca-1 microbeads (Miltenyi Biotec, Cat#130-092-529) for co-immunoprecipitation (FIG. 4A). Cells were then lysed and incubated with either anti-CBP (A22) or anti-p300 (C20) antibodies. Then, the immunoprecipitation complex were electrophoresed and detected with antibodies to either β-catenin or γ-catenin. […] This confirms that YH250 directly disrupts the p300/catenin interaction thereby enhancing the CBP/catenin interaction in HSPCs.

[3] = system: Axin2 and survivin (Birc5) gene expression; assay: qPCR gene expression in bone marrow Sca-1posit cells of treated mice; type: in vivo, mouse; conditions: 2 mg/kg overnight, Sca-1+ population
Method: Axin2 is a classical Wnt/catenin target genes and plays important regulatory roles in Wnt signaling. The inhibitor of apoptosis (IAP) family member survivin (Birc5) is another Wnt/catenin target gene. […] To study YH250 effects in bone marrow stem cell population gene expression, female C57/Black mice were treated with DMSO or YH250 (2 mg/kg) overnight and bone marrow Sca-1posit cells were isolated. Then, total RNA were extracted for cDNA synthesis and qPCR assay (FIG. 5A). As shown in FIGS. 5B-5C, both Axin2 and survivin gene expression were up regulated by YH250 in the Sca-1^+ population of the treated animals.

bone marrow HSPC [4] = assay: Multiple administration, competitive repopulation assay; type: in vivo, mouse
Method: The golden standard to determine HSPC number and activity is a competitive repopulation assay. The testing cells and competitor cells are mixed and transplanted to recipients to create an environment the testing cells compete with competitor cells to repopulate the recipients' hematopoietic system. The quantitative engraftment level reflects the testing cell stem/progenitor cell number.
In this study, donor mice (CD45.2) were treated with YH250 or DMSO every 48 hs for 4 round, then, bone marrow cells from the treated mice were recovered and mixed with competitive cells from non-treated normal mice for BMT to lethally irradiated recipients (FIG. 16A). Blood were collected periodically from recipient mice to determine HSPC activities.

bone marrow HSPC [5] = assay: HSPC proliferation in 7Gy irradiated mice (BrdU, cell cycle, FACS); type: in vivo, mouse
Method: YH250 was also tested for stimulation of HSPC (hematopoietic stem/progenitor population) proliferation in irradiated animals. In this study, mice received 7Gy whole body radiation, DMSO or YH250 (s.c., 2 mg/Kg) were administrated 24 hours post radiation, followed with BrdU injection. FIG. 17A depicts the experimental procedure. […] Then, YH250 was administrated to 7Gy irradiated animals and 4 days later, bone marrow cells were isolated for FACS analysis for HSC markers (FIG. 17E).

cord blood CD34+ cells = assay: Cord blood CD34+ cell culture 7 days, FACS surface marker analysis; type: cell-based, human; conditions: 7th day
Method: A method to analyze expanded cord blood CD34+ cell phenotype using FACS is established. In this study, cord blood cells were cultured in vitro with 4GF and different concentrations of p300/-catenin antagonist such as YH250. Because the limited CD34+ cells in culture system, GFP transgenic mouse bone marrow cells were isolated and added to the cells as carrier cells in FACS analysis. The bright GFP positive carrier cells were gated out and the targeting cord blood cells were further analyzed for their surface marker. FIG. 13A depicts carrier cell only in FACS analysis.
Cord blood CD34+ cells were cultured in medium containing either 4GF or 6GF with different concentration of p300/-catenin antagonist YH250. At 7th day in culture, cells were recovered and mixed with carrier cells from GFP mice bone marrow. Antibodies to human HSC surface protein are added to the cells and human CD45posit cells were gated for FACS analysis. […] In 6GF medium, 10 μM of YH250 also gives more human CD45+CD34+ cells compared with DMSO (73.3% vs 66.2%, Table 5).

T1 sequence (P45481 2-2441 limits assumed): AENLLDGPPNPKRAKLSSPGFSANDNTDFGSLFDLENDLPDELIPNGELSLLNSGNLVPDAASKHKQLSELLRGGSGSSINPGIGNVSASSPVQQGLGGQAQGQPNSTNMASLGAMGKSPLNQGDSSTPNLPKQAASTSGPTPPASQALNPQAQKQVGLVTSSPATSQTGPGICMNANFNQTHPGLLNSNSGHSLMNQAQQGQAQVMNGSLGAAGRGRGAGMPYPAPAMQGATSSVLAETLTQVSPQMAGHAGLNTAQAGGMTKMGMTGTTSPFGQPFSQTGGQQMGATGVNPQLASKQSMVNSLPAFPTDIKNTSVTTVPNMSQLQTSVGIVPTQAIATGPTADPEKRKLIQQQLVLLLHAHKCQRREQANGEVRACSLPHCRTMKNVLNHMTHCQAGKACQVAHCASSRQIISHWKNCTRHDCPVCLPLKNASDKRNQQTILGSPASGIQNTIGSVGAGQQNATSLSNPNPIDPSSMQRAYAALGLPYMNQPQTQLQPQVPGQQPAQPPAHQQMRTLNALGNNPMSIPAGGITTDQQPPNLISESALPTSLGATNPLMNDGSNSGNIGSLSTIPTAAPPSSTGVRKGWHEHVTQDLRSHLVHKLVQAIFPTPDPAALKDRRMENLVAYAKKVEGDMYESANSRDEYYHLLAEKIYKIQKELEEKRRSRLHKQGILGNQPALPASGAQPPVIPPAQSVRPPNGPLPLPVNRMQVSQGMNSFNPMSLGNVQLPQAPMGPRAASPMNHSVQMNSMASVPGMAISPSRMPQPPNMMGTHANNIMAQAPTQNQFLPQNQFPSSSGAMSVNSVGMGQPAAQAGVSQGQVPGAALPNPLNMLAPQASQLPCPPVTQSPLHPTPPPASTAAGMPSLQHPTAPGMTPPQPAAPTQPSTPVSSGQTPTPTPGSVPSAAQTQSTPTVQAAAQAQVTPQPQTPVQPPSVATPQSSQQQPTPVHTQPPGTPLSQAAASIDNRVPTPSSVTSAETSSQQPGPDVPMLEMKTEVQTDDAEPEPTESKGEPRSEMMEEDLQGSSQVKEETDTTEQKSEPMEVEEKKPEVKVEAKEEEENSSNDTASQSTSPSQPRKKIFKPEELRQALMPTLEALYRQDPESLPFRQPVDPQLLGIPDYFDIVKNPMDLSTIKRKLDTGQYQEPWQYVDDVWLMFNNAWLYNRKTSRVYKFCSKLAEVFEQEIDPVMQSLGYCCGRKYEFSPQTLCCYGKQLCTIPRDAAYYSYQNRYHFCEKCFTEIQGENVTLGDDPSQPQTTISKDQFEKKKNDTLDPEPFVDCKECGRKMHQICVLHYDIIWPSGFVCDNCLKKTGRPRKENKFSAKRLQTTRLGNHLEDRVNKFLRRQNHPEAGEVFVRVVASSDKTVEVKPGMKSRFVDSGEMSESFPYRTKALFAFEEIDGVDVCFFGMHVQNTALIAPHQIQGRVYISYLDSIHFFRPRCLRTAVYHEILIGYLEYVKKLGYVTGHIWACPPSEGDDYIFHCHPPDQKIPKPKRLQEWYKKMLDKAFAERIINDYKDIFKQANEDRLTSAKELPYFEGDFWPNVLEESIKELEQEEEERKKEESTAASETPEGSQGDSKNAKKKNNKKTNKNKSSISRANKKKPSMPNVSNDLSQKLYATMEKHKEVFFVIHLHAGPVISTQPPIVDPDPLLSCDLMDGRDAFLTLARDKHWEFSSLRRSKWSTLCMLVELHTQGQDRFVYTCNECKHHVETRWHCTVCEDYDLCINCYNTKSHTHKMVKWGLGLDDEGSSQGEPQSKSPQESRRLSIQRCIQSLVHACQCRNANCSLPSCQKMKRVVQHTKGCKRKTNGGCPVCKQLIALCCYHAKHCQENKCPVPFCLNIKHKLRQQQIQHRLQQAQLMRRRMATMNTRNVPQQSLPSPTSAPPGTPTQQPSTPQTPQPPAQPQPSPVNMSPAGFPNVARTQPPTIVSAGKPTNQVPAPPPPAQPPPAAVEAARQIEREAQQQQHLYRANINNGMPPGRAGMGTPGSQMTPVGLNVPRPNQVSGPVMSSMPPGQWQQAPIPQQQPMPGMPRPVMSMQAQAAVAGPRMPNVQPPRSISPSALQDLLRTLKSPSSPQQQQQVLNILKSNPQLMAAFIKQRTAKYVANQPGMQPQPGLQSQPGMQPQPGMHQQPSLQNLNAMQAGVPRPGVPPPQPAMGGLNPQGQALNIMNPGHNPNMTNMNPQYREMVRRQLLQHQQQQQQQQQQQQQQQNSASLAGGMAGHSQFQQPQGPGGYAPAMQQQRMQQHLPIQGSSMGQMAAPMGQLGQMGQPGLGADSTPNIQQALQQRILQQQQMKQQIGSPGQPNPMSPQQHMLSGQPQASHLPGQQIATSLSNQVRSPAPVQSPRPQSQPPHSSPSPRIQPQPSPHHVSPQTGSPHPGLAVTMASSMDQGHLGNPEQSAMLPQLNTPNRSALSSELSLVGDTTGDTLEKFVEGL

COc1cccc(CNC(=O)N2C3CN(Cc4cc(Cl)cc(Cl)c4N(C)C)C(=O)[C@H](Cc4ccc(O)cc4)N3C(=O)CN2C)c1OC (stereo partly drawn) [YH250]
Lin-CD48-CD150+ cell numbers vs DMSO [1]: significantly higher
lineage negative cell numbers vs DMSO [1]: significantly higher
apoptosis (cleaved PARP) in LSK, lineage-negt and lineage-posit population (bone marrow cells): significantly less apoptosis
CBP/γ-catenin interaction [2]: promotes CBP/γ-catenin interaction
Axin2 gene expression [3]: up regulated
survivin gene expression [3]: up regulated
BrdU positive cells in HSPC compartment (bone marrow HSPC [4]; LSK34negt135neg, LSK34neg135neg48negt150posit, LSK34posit135negt cells): more BrdU positive cells
engraftment level at day 140 and 164 vs day 40 after BMT (bone marrow HSPC [4]; donors treated every 48 hs for 4 round, p<0.01, n=5/group): significantly increased
engraftment level vs DMSO treated cells (bone marrow HSPC [4]; no statistical significance (n=5)): higher than DMSO treated cells
bone marrow cells in S phase (bone marrow HSPC [5]; 7Gy irradiation): more bone marrow cells in S phase
HSPC (L−CD48−CD150+ cells) (bone marrow HSPC [5]; 7Gy, 4 days after administration): increased HSPC
BrdU positive cells in lineage negative (Lin) population (bone marrow HSPC [5]; 7Gy, s.c., 2 mg/Kg 24 hours post radiation): more BrdUpost cells
%34 + 38-45RA-33- (cord blood CD34+ cells; 4GF (SF6T), 1 μM, DMSO 3.9): 3.5%
%33-45RA- (cord blood CD34+ cells; 4GF (SF6T), 1 μM, DMSO 4.5): 5.0%
% CD3+ (cord blood CD34+ cells; 4GF (SF6T), 1 μM, DMSO 12.2): 16.0%
%34 + 38- (cord blood CD34+ cells; 4GF (SF6T), 1 μM, DMSO 64.5): 51.7%
%34+ (cord blood CD34+ cells; 4GF (SF6T), 1 μM, DMSO 79.1): 64.1%
%33-45RA- (cord blood CD34+ cells; 4GF (SF6T), 3 μM): 5.8%
%34+ (cord blood CD34+ cells; 4GF (SF6T), 3 μM): 84%
%34 + 38- (cord blood CD34+ cells; 4GF (SF6T), 3 μM): 65.5%
%34 + 38-45RA-33- (cord blood CD34+ cells; 4GF (SF6T), 3 μM): 5.2%
% CD3+ (cord blood CD34+ cells; 4GF (SF6T), 3 μM): 9.5%
%33-45RA- (cord blood CD34+ cells; 4GF (SF6T), 10 μM): 4.9%
%34+ (cord blood CD34+ cells; 4GF (SF6T), 10 μM): 89.1%
%34 + 38- (cord blood CD34+ cells; 4GF (SF6T), 10 μM): 65.3%
%34 + 38-45RA-33- (cord blood CD34+ cells; 4GF (SF6T), 10 μM): 4.5%
% CD3+ (cord blood CD34+ cells; 4GF (SF6T), 10 μM): 4.5%
%34 + 38-45RA-33- (cord blood CD34+ cells; 6GF (SF6T3G), 1 μM, DMSO 2.3): 4.4%
%33-45RA- (cord blood CD34+ cells; 6GF (SF6T3G), 1 μM, DMSO 2.5): 5.8%
% CD3+ (cord blood CD34+ cells; 6GF (SF6T3G), 1 μM, DMSO 22.6): 20.1%
%34 + 38- (cord blood CD34+ cells; 6GF (SF6T3G), 1 μM, DMSO 56.4): 53.9%
%34+ (cord blood CD34+ cells; 6GF (SF6T3G), 1 μM, DMSO 66.2): 62%
%33-45RA- (cord blood CD34+ cells; 6GF (SF6T3G), 3 μM): 5.6%
%34+ (cord blood CD34+ cells; 6GF (SF6T3G), 3 μM): 66.1%
%34 + 38- (cord blood CD34+ cells; 6GF (SF6T3G), 3 μM): 55.8%
%34 + 38-45RA-33- (cord blood CD34+ cells; 6GF (SF6T3G), 3 μM): 4.2%
% CD3+ (cord blood CD34+ cells; 6GF (SF6T3G), 3 μM): 18.8%
%33-45RA- (cord blood CD34+ cells; 6GF (SF6T3G), 10 μM): 6.1%
%34+ (cord blood CD34+ cells; 6GF (SF6T3G), 10 μM): 73.3%
%34 + 38- (cord blood CD34+ cells; 6GF (SF6T3G), 10 μM): 57.9%
%34 + 38-45RA-33- (cord blood CD34+ cells; 6GF (SF6T3G), 10 μM): 4.2%
% CD3+ (cord blood CD34+ cells; 6GF (SF6T3G), 10 μM): 13.8%
